Measured values taken from ChEMBL document CHEMBL1909046, “DrugMatrix in vitro pharmacology data”.

How the values were obtained:
[1] = biological target: T1, Alpha-2A adrenergic receptor (Homo sapiens, UniProt P08913); format: cell membranes, Sf9, Membrane; conditions: sf9; further: in other assays of this panel Not Active means under 50% inhibition at 10 µM
T1 sequence (P08913 whole entry): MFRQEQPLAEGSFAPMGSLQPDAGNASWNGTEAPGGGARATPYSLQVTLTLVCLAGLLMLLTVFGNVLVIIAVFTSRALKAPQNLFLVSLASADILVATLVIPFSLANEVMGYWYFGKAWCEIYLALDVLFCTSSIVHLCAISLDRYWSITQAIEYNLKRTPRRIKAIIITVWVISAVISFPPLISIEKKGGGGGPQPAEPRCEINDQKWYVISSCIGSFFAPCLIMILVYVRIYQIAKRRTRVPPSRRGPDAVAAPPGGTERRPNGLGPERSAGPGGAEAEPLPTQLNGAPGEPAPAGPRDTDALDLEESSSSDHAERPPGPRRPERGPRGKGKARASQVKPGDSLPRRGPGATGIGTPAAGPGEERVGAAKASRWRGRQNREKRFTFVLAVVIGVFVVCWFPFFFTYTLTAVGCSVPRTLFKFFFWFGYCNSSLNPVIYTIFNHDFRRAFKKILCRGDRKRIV

[2] = biological target: T2, Amine oxidase [flavin-containing] A (Homo sapiens, UniProt P21397); test: DRUGMATRIX: Monoamine Oxidase MAO-A enzyme inhibition (substrate: Kynuramine); set-up: species or system BTI-TN-5B1-4; conditions: Not Active = under 50% inhibition at 10 µM
T2 sequence (P21397 whole entry): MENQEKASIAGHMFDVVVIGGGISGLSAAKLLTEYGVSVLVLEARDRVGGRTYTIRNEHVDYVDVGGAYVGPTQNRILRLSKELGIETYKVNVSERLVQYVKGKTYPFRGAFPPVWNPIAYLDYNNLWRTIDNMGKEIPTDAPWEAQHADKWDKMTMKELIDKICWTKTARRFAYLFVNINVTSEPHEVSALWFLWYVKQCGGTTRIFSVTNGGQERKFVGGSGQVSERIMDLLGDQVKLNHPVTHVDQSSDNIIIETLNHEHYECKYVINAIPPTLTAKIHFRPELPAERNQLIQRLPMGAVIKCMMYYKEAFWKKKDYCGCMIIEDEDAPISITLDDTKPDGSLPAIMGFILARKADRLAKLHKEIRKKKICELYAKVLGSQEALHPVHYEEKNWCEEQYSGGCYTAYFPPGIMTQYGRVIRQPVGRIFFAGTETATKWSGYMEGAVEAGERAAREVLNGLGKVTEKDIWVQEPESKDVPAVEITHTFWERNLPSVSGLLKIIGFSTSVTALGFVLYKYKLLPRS

[3] = biological target: T3, 3-hydroxy-3-methylglutaryl-coenzyme A reductase (Homo sapiens, UniProt P04035); set-up: species or system Escherichia coli;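 further: enzyme inhibition assay of HMG-CoA reductase using radiolabeled [14C]HMG-CoA as substrate; in other assays of this panel Not Active means under 50% inhibition at 10 µM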
T3 sequence (P04035 whole entry): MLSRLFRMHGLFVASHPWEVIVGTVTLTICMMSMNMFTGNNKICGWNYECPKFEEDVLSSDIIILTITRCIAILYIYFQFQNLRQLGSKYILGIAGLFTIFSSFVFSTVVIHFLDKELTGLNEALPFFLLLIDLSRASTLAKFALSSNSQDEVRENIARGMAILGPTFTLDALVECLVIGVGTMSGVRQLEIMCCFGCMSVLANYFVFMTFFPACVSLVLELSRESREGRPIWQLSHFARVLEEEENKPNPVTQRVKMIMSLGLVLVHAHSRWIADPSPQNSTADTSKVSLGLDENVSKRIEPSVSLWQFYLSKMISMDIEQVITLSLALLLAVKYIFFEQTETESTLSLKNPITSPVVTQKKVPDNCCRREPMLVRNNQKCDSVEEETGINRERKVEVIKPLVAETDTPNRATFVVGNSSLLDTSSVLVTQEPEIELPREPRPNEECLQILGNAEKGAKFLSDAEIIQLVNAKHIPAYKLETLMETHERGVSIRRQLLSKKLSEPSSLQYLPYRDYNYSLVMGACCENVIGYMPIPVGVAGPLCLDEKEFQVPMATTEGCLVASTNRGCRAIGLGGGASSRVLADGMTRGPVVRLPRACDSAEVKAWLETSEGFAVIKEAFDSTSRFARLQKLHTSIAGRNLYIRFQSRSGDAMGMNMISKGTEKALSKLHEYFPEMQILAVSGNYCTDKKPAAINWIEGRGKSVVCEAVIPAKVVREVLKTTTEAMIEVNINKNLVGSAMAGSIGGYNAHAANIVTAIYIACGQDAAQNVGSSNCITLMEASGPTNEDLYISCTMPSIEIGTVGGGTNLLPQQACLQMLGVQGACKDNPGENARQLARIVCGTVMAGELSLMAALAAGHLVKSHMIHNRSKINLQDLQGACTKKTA

Cytochrome P450 2A6 = biological target: T4, Cytochrome P450 2A6 (Homo sapiens, UniProt P11509); conditions: bti-tn-5b1-4; further: in other assays of this panel Not Active means under 50% inhibition at 10 µM
T4 sequence (P11509 whole entry): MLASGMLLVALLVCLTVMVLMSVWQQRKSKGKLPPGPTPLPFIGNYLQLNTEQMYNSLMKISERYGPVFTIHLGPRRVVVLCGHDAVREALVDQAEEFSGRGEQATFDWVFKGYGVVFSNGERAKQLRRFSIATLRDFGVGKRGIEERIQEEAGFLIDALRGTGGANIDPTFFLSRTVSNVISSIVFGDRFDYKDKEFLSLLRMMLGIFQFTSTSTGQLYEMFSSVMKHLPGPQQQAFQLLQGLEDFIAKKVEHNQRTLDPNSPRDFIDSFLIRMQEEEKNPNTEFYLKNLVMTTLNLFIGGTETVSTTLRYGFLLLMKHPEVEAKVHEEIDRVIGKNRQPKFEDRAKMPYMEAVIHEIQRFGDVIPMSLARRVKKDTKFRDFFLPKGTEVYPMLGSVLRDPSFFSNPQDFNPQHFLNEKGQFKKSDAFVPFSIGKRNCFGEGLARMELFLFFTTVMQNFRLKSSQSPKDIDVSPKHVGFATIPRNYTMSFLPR

Acetylcholinesterase = Acetylcholinesterase (Homo sapiens, UniProt P22303); test: DRUGMATRIX: Acetylcholinesterase enzyme inhibition (substrate: acetylthiocholine); format: cell-based, HEK293; conditions: Not Active = under 50% inhibition at 10 µM
Histamine H2 receptor = Histamine H2 receptor (Homo sapiens, UniProt P25021); format: cell membranes, CHO-K1, Membrane; conditions: cho-k1; further: in other assays of this panel Not Active means under 50% inhibition at 10 µM
Chain of Histamine H2 receptor (P25021 whole entry): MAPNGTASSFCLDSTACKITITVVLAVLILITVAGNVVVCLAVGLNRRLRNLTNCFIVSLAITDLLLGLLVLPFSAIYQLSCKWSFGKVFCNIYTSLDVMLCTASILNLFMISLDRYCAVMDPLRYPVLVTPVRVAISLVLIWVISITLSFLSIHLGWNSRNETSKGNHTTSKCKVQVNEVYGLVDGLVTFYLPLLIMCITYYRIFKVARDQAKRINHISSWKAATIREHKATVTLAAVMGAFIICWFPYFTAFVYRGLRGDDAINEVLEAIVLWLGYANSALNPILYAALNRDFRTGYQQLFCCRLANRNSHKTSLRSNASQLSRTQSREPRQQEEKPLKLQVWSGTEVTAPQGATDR

Chain of Acetylcholinesterase (P22303 whole entry): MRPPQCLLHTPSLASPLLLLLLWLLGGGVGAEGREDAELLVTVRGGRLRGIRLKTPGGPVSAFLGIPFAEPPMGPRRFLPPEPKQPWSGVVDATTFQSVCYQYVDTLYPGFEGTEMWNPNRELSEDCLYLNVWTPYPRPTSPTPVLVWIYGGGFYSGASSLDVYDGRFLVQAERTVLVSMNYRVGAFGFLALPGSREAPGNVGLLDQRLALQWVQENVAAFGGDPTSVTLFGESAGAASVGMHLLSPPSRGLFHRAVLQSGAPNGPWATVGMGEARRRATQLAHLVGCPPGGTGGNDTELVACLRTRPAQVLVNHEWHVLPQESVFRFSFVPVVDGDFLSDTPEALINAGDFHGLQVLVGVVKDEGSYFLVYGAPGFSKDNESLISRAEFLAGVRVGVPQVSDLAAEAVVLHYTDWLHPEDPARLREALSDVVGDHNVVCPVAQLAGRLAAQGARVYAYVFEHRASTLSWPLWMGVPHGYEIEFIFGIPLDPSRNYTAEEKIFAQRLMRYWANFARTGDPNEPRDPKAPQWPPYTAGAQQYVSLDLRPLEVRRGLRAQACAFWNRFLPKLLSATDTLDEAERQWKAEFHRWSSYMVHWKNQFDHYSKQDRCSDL

SMILES	IC50 [1]	IC50 ([2]; bti-tn-5b1-4)	IC50 [3]	IC50 (Cytochrome P450 2A6)	Ki (Cytochrome P450 2A6)	IC50 (Acetylcholinesterase; hek293)	IC50 (Histamine H2 receptor)	IC50 (Acetylcholinesterase; read-out: IC50) [µM]	IC50 ([2]; read-out: IC50) [µM]
Nn1nnc2ccccc21	Not Active	Not Active	Not Active	Not Active	Not Active	Not Active	Not Active	–	–
CC[C@]1(O)CC[C@H]2[C@@H]3CCC4=CCCC[C@@H]4[C@H]3CC[C@@]21C	Not Active	Not Active	Not Active	Not Active	Not Active	–	Not Active	6.5	–
N[C@@H](Cc1ccc(F)cc1)C(=O)O	Not Active	Not Active	Not Active	–	–	Not Active	Not Active	–	–
CCOC(=O)[C@H](CCc1ccccc1)N[C@@H](C)C(=O)N1Cc2ccccc2C[C@H]1C(=O)O	Not Active	Not Active	Not Active	Not Active	Not Active	Not Active	Not Active	–	–
O=C(c1ccccc1Cl)N1CCC(Cc2ccccc2)CC1	Not Active	Not Active	Not Active	Not Active	Not Active	Not Active	Not Active	–	–
CCOC(=O)[C@H](CCc1ccccc1)N[C@@H](C)C(=O)N1CCC[C@H]1C(=O)O	Not Active	Not Active	Not Active	Not Active	Not Active	Not Active	Not Active	–	–
Clc1cc2c(cc1Cl)Oc1cc(Cl)c(Cl)cc1O2 [2,3,7,8-TETRACHLORODIBENZO-P-DIOXIN]	Not Active	Not Active	Not Active	Not Active	Not Active	Not Active	Not Active	–	–
C=C1/C(=C\C=C2/CCC[C@]3(C)[C@@H]([C@H](C)CCCC(C)C)CC[C@@H]23)C[C@@H](O)C[C@@H]1O [ALFACALCIDOL]	Not Active	Not Active	Not Active	Not Active	Not Active	Not Active	Not Active	–	–
CCCCCC[C@H]1C(=O)O[C@H](C)[C@H](NC(=O)c2cccc(NC=O)c2O)C(=O)O[C@@H](C)[C@@H]1OC(=O)CC(C)C [ANTIMYCIN A]	Not Active	Not Active	Not Active	Not Active	Not Active	Not Active	Not Active	–	–
C[C@@H]1CC[C@H]2[C@@H](C)C(=O)O[C@@H]3O[C@@]4(C)CC[C@@H]1[C@]32OO4 [ARTEMISININ]	Not Active	Not Active	Not Active	–	–	Not Active	Not Active	–	–
CO[C@H]1[C@@H](O)[C@H](N)[C@@H](O[C@H]2O[C@H]([C@H](C)N)CC[C@H]2N)[C@H](O)[C@@H]1N(C)C(=O)CN [ASTROMICIN]	Not Active	Not Active	Not Active	Not Active	Not Active	Not Active	Not Active	–	–
[N-]=[N+]=CC(=O)OC[C@H](N)C(=O)O [AZASERINE]	Not Active	Not Active	Not Active	Not Active	Not Active	Not Active	Not Active	–	–
CC(C)C[C@H]1C(=O)N2CCC[C@H]2[C@]2(O)O[C@](NC(=O)[C@@H]3C=C4c5cccc6[nH]c(Br)c(c56)C[C@H]4N(C)C3)(C(C)C)C(=O)N12 [BROMOCRIPTINE]	–	Not Active	Not Active	Not Active	Not Active	Not Active	Not Active	–	–
CCC[C@@H]1C[C@@H](C(=O)N[C@@H]([C@H]2O[C@H](SC)[C@H](O)[C@@H](O)[C@H]2O)[C@H](C)Cl)N(C)C1 [CLINDAMYCIN]	Not Active	Not Active	Not Active	–	–	Not Active	Not Active	–	–
CN1C[C@H](C(=O)N[C@]2(C)O[C@@]3(O)[C@@H]4CCCN4C(=O)[C@H](Cc4ccccc4)N3C2=O)C[C@@H]2c3cccc4[nH]cc(c34)C[C@H]21 [DIHYDROERGOTAMINE]	–	Not Active	Not Active	Not Active	Not Active	Not Active	Not Active	–	–
Cc1cn[nH]c1 [FOMEPIZOLE]	Not Active	Not Active	Not Active	–	–	Not Active	Not Active	–	–
Cc1cnc(C(=O)NCCc2ccc(S(=O)(=O)NC(=O)NC3CCCCC3)cc2)cn1 [GLIPIZIDE]	Not Active	Not Active	–	–	–	Not Active	Not Active	–	–
COc1ccccc1OCC(O)CO (stereo not given) [GUAIFENESIN]	Not Active	Not Active	Not Active	–	–	Not Active	Not Active	–	–
N=C(N)N/N=C/c1c(Cl)cccc1Cl [GUANABENZ]	–	–	Not Active	Not Active	Not Active	Not Active	Not Active	–	1.79
C/C=C\c1ccc(O)c(OC)c1 [ISOEUGENOL]	Not Active	Not Active	Not Active	–	–	Not Active	Not Active	–	–
CC[C@H](C)C(=O)O[C@H]1C[C@@H](C)C=C2C=C[C@H](C)[C@H](CC[C@@H]3C[C@@H](O)CC(=O)O3)[C@H]21 [LOVASTATIN]	Not Active	Not Active	–	Not Active	Not Active	Not Active	Not Active	–	–
COc1ccc2cc(CCC(C)=O)ccc2c1 [NABUMETONE]	Not Active	–	Not Active	Not Active	Not Active	Not Active	Not Active	–	–
CC[C@H](C)C(=O)O[C@H]1C[C@H](O)C=C2C=C[C@H](C)[C@H](CC[C@@H](O)C[C@@H](O)CC(=O)O)[C@H]21 [PRAVASTATIN]	Not Active	Not Active	–	Not Active	Not Active	Not Active	Not Active	–	–
